Laboratory results: patent US7935848B2, “Butone derivatives useful as cooling agents” (Givaudan S.A., priority 2007, dated 2011)

Experiments:
Format in all cases: in vivo, human
[1] = Application in chewing gum: cooling perception after chewing; conditions: for Cooling perception rated higher than the control: chewing gum with 0.05 g compound plus 0.50 g peppermint oil versus peppermint oil control; for Cooling sensation felt by the panelist in all areas of the mouth: chewing gum with 0.50 g peppermint oil; for Cooling sensation felt by the panelist in all areas of the mouth / Duration of cooling perception: test compound 0.05 g, 2 g piece chewed 20 min; for Duration of cooling perception: chewing gum, 0.50 g peppermint oil
Procedure: The gum base and half of the sorbitol were mixed, maltitol syrup was added and the mixed with the gum mass. The rest of powder (rest of sorbitol, mannitol, potassium acesulfame, aspartame) were added and mixed for about 1 minute, when glycerine was added and the gum mass was mix for about 5 minutes, to form the blank chewing gum mass. Peppermint oil was worked into the mass and a piece of the resulting gum (2 g) is chewed by the panelist for 20 min and spat out. […] The cooling perception lasts for 50 minutes.
The chemical and peppermint oil was worked into the blank chewing gum mass from Example 12 a) and a piece of the resulting gum (2 g) is chewed by the panelist for 20 minutes and spat out.
The chemical and peppermint oil was worked into the blank chewing gum mass from Example 12a) and a piece of the resulting gum (2 g) is chewed by the panelist for 20 minutes and spat out.

[2] = Application in toothpaste: cooling perception after brushing; conditions: for Cooling sensation felt by the panelist in all areas of the mouth: opaque toothgel with 0.50 g peppermint oil and 0.30 g saccharin, teeth brushed, mouth rinsed; for Cooling sensation felt by the panelist in all areas of the mouth / Duration of cooling perception: test compound 0.05 g per 100 g; for Cooling perception rating versus control: toothgel with 0.05 g compound plus 0.50 g peppermint oil versus peppermint oil control; for Duration of cooling perception: toothgel, 0.50 g peppermint oil
Procedure: The chemicals are mixed in the toothgel, a piece of toothgel is put on a toothbrush and a panelist's teeth are brushed. The mouth is rinsed with water and the water is spat out. […] The cooling perception lasts for 40 minutes.
The chemicals are mixed in the toothgel, a piece of toothgel is put on a toothbrush and a panelist's teeth are brushed. The mouth is rinsed with water and the water is spat out.

[3] = Cooling intensity: panelists taste aqueous solutions, compared with menthol at 2 ppm; conditions: tasted by small group of panelists

SMILES	Cooling perception rated higher than the control [1] [%]	Cooling sensation felt by the panelist in all areas of the mouth [1]	Duration of cooling perception [1]	Cooling sensation felt by the panelist in all areas of the mouth [2]	Cooling perception rating versus control [2]	Duration of cooling perception [2] [min]	Concentration with cooling intensity similar to or slightly higher than a solution of menthol at 2 ppm [3] [ppm]
CCCC(=O)[C@@H]1C[C@H](C)CC[C@H]1C(C)C [Example 1, 1-((1R,2S,5R)-2-isopropyl-5-methylcyclohexyl)butan-1-one]	49	cooling sensation	over 60 minutes	intense cooling sensation	higher then the control	72	2.0
CC(C)[C@@H]1CC[C@@H](C)C[C@H]1C(=O)CCCc1ccccc1 [Example 2, 1-((1R,2S,5R)-2-isopropyl-5-methylcyclohexyl)-4-phenylbutan-1-one]	49	cooling sensation	over 60 minutes	intense cooling sensation	higher then the control	70	2.0
CC(C)[C@@H]1CC[C@@H](C)C[C@H]1C(=O)CCCc1ccccn1 [Example 3, 1-((1R,2S,5R)-2-isopropyl-5-methylcyclohexyl)-4-(pyridin-2-yl)butan-1-one]							0.01
CC(C)C(C)(C(=O)CCCc1ccccc1)C(C)C [Example 4, 5-isopropyl-5,6-dimethyl-1-phenylheptan-4-one]							3.0
CCNC(=O)C1CC(C)CCC1C(C)C (stereo not drawn) [WS-3, N-ethyl p-menthanecarboxamide, reference compound]							1.5
CC(C)[C@@H]1CC[C@@H](C)C[C@H]1O [l-Menthol, reference compound]							2.0
